Assay results taken from ChEMBL document CHEMBL1201862, “PubChem BioAssay data set” (2004).
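A five-concentration, 48-hour dose response in 96-well plates underlies each endpoint, interpolated linearly between surrounding concentrations. At the GI50, growth is halved.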 Calls of active or inactive are those of the source. Rule as the data show it: active = GI50 up to about 1.1 µM and inactive = higher.

Columns and labels:
Assay in all cases: NCI tumour cell line growth inhibition, 48 h
[1] = test system: NCI/ADR-RES
[2] = test system: SK-MEL-5
[3] = test system: RPMI-8226
[4] = test system: DU-145
[5] = test system: IGROV-1
[6] = test system: COLO 205
[7] = test system: A498
[8] = test system: MDA-N
[9] = test system: Malme-3M
[10] = test system: M14
[11] = test system: EKVX
[12] = test system: NCI-H522
[13] = test system: SN12C
[14] = test system: K562
[15] = test system: OVCAR-4
[16] = test system: SF-295
[17] = test system: SK-MEL-2
[18] = test system: PC-3
[19] = test system: LOX IMVI
[20] = test system: TK-10

Measured: GI50

CCCCCCCCCCCCCCCC(=O)OCC(COP(=O)(O)OCCNC(=O)CCSSc1ccccn1)OC(=O)CCCCCCCCCCCCCCC (stereo unspecified)
inactive: [1] > 100 µM | [2] > 100 µM | [3] > 100 µM | [4] > 100 µM | [5] > 100 µM | [6] > 100 µM | [7] > 100 µM | [8] > 100 µM | [9] > 100 µM | [10] > 100 µM | [11] > 100 µM | [12] > 100 µM | [13] > 100 µM | [14] > 100 µM | [15] > 100 µM | [16] > 100 µM | [17] > 100 µM | [18] > 100 µM

OCc1ccc2c(c1)CC1(Cc3ccccc3C1)C2
inactive: [1] 16.8 µM | [2] 11.5 µM | [3] 15.8 µM | [19] 15.4 µM | [4] 33.8 µM | [5] > 10 µM | [20] 21.2 µM | [6] 15.6 µM | [7] 26.7 µM | [8] 4.86 µM | [9] 13.6 µM | [11] 26.1 µM | [12] 22.5 µM | [13] 17.4 µM | [14] 7.11 µM | [15] 34 µM | [16] 18.1 µM | [18] 10.8 µM

CCn1nc(-c2ccccc2)c2c1N(C)c1ccccc1-n1c(-c3ccccc3)nnc1-2
inactive: [1] 14.9 µM | [2] 9.25 µM | [3] 9.68 µM | [19] 16.6 µM | [4] 16.1 µM | [5] 19.9 µM | [20] 16 µM | [6] 19.7 µM | [7] 1.46 µM | [8] 15.1 µM | [10] 16 µM | [13] 16.4 µM | [14] 17.1 µM | [17] 17.3 µM | [18] 13.2 µM

CCCCCCCCCCCCCCCC(=O)ON1C(=S)NC(C)(c2ccccc2)C1=S (stereo unspecified)
inactive: [1] > 100 µM | [2] > 100 µM | [3] > 100 µM | [19] 45.2 µM | [4] > 100 µM | [5] 79.3 µM | [20] > 100 µM | [6] > 100 µM | [7] > 100 µM | [8] > 100 µM | [9] > 100 µM | [10] 30.3 µM | [11] > 100 µM | [13] > 100 µM | [14] 38.2 µM | [15] > 100 µM | [16] 2.11 µM | [17] > 100 µM | [18] 62.2 µM

CC(=O)n1cc(OP(=O)(Oc2ccccc2)Oc2ccccc2)c2ccccc21
inactive: [1] 16.7 µM | [2] 19 µM | [3] 19.2 µM | [19] 23.2 µM | [4] 72.3 µM | [5] 8.53 µM | [20] 50.6 µM | [6] 13.2 µM | [7] 54 µM | [8] 27.6 µM | [9] 36.4 µM | [10] 18.9 µM | [13] 29.2 µM | [14] 23.2 µM | [15] 29.6 µM | [16] 38.9 µM | [17] 22.2 µM | [18] 10.3 µM

Cc1ccc(S(=O)(=O)N/N=C2\CC3C4C=CC3C2C4)cc1 (stereo unspecified)
inactive: [1] > 100 µM | [2] > 100 µM | [19] > 100 µM | [4] > 100 µM | [5] > 100 µM | [20] > 100 µM | [6] > 100 µM | [7] > 100 µM | [8] > 100 µM | [9] > 100 µM | [10] > 100 µM | [11] > 100 µM | [12] > 100 µM | [13] > 100 µM | [14] > 100 µM | [15] > 100 µM | [16] > 100 µM | [17] > 100 µM | [18] > 100 µM

c1ccc2oc(-c3ccc(-c4nc5ccccc5o4)c4c3CC4)nc2c1
inactive: [1] > 100 µM | [2] > 100 µM | [3] > 100 µM | [19] > 100 µM | [4] > 100 µM | [5] > 100 µM | [20] > 100 µM | [6] > 100 µM | [7] > 100 µM | [8] > 100 µM | [9] > 100 µM | [10] > 100 µM | [11] > 100 µM | [13] > 100 µM | [14] > 100 µM | [15] > 100 µM | [16] > 100 µM | [17] > 100 µM | [18] > 100 µM

CC12CC(=O)Nc3ccccc3N1C(c1ccccc1)=NO2 (stereo unspecified)
inactive: [1] > 100 µM | [2] > 100 µM | [3] > 100 µM | [4] > 100 µM | [5] > 100 µM | [20] > 100 µM | [6] > 100 µM | [7] > 100 µM | [8] > 100 µM | [9] > 100 µM | [10] > 100 µM | [11] > 100 µM | [12] > 100 µM | [13] > 100 µM | [14] > 100 µM | [15] > 100 µM | [16] > 100 µM | [17] > 100 µM | [18] > 100 µM

Cn1c(=O)c(Br)c(C=O)n(CCO[N+](=O)[O-])c1=O
inactive: [1] 1.74 µM | [2] 11.2 µM | [3] 2.26 µM | [19] 2.14 µM | [4] 27.2 µM | [20] 3.86 µM | [6] 5.92 µM | [7] 18.2 µM | [8] 4.23 µM | [10] 3.99 µM | [11] 2.78 µM | [13] 4.34 µM | [14] 2.66 µM | [17] 3.59 µM | [18] 9.14 µM

CC(C)(C)NC(NC(C)(C)C)=C(C(Cl)=C(Cl)Cl)[N+](=O)[O-]
inactive: [1] > 100 µM | [2] > 100 µM | [3] > 100 µM | [19] > 100 µM | [4] > 100 µM | [5] > 100 µM | [20] > 100 µM | [6] > 100 µM | [7] > 100 µM | [8] > 100 µM | [9] > 100 µM | [10] > 100 µM | [11] > 100 µM | [13] > 100 µM | [14] > 100 µM | [15] > 100 µM | [16] > 100 µM | [18] > 100 µM

O=C(O)c1cc(O)nc(SCc2ccccc2)n1
inactive: [1] > 100 µM | [2] > 100 µM | [19] > 100 µM | [4] > 100 µM | [5] > 100 µM | [20] > 100 µM | [7] > 100 µM | [8] > 100 µM | [9] > 100 µM | [10] > 100 µM | [11] > 100 µM | [12] > 100 µM | [13] > 100 µM | [14] > 100 µM | [15] > 100 µM | [16] > 100 µM | [17] > 100 µM | [18] > 100 µM
